Experimental data published in ChEMBL document CHEMBL5360532, “Current scenario of quinolone hybrids with potential antibacterial activity against ESKAPE pathogens” (Eur J Med Chem, 2023).
Converted amounts (≈) assume the structure as drawn.

Assays:
Format in all cases: functional
[1] = test system: Staphylococcus aureus; assay: Potency index, ratio of ciprofloxacin MIC to test compound MIC for antimicrobial activity against Staphylococcus aureus MLS16 MTCC 2940 assessed as bacterial growth inhibition measured after 24 hrs by microdilution assay
[2] = test system: Pseudomonas aeruginosa; assay: Antibacterial activity against Pseudomonas aeruginosa MTCC 424 assessed as bacterial growth inhibition measured after 24 hrs by microdilution assay
[3] = test system: Staphylococcus aureus; assay: Antibacterial activity against Staphylococcus aureus MLS16 MTCC 2940 assessed as bacterial growth inhibition measured after 24 hrs by microdilution assay
[4] = test system: Escherichia coli; assay: Potency index, ratio of ciprofloxacin MIC to test compound MIC for antimicrobial activity against Escherichia coli MTCC 1687 assessed as bacterial growth inhibition measured after 24 hrs by microdilution assay
[5] = test system: Staphylococcus aureus; assay: Potency index, ratio of ciprofloxacin MIC to test compound MIC for antimicrobial activity against Staphylococcus aureus MTCC 424 assessed as bacterial growth inhibition measured after 24 hrs by microdilution assay
[6] = test system: Escherichia coli; assay: Antibacterial activity against Escherichia coli MTCC 1687 assessed as bacterial growth inhibition measured after 24 hrs by microdilution assay
[7] = test system: Staphylococcus aureus; assay: Antibacterial activity against Staphylococcus aureus MTCC 737 assessed as bacterial growth inhibition measured after 24 hrs by microdilution assay
[8] = test system: Mycobacterium tuberculosis; assay: Antimycobacterial activity against Mycobacterium tuberculosis H37Rv assessed as zone of inhibition at 50 mg/ml by agar well diffusion assay; conditions: read-out: IZ
[9] = test system: Enterococcus faecalis; assay: Antibacterial activity against Enterococcus faecalis assessed as zone of inhibition at 50 mg/ml by agar well diffusion assay; conditions: read-out: IZ
[10] = test system: Staphylococcus aureus; assay: Antibacterial activity against Staphylococcus aureus assessed as zone of inhibition at 50 mg/ml by agar well diffusion assay; conditions: read-out: IZ
[11] = test system: Mycobacterium tuberculosis; assay: Antimycobacterial activity against Mycobacterium tuberculosis H37Rv assessed as bacterial growth inhibition
[12] = test system: Streptococcus pneumoniae; assay: Antibacterial activity against Streptococcus pneumoniae assessed as zone of inhibition at 50 mg/ml by agar well diffusion assay; conditions: read-out: IZ
[13] = test system: Escherichia coli; assay: Antibacterial activity against Escherichia coli assessed as zone of inhibition at 50 mg/ml by agar well diffusion assay; conditions: read-out: IZ
[14] = test system: Enterococcus; assay: Antibacterial activity against vancomycin resistant Enterococcus assessed as bacterial growth inhibition measured after 16 to 24 hrs by broth microdilution assay; conditions: time 16-24 hrs
[15] = test system: Streptococcus pneumoniae; assay: Antibacterial activity against Streptococcus pneumoniae clinical isolates assessed as bacterial growth inhibition measured after 16 to 24 hrs by broth microdilution assay; conditions: time 16-24 hrs
[16] = test system: Staphylococcus aureus; assay: Antibacterial activity against methicillin resistant Staphylococcus aureus assessed as bacterial growth inhibition measured after 16 to 24 hrs by broth microdilution assay; conditions: time 16-24 hrs
[17] = test system: Streptococcus agalactiae; assay: Antibacterial activity against Streptococcus agalactiae assessed as bacterial growth inhibition measured after 16 to 24 hrs by broth microdilution assay; conditions: time 16-24 hrs
[18] = test system: Haemophilus influenzae; assay: Antibacterial activity against Haemophilus influenzae assessed as bacterial growth inhibition measured after 16 to 24 hrs by broth microdilution assay; conditions: time 16-24 hrs
[19] = test system: Enterococcus faecium; assay: Antibacterial activity against Enterococcus faecium clinical isolates assessed as bacterial growth inhibition measured after 16 to 24 hrs by broth microdilution assay; conditions: time 16-24 hrs
[20] = test system: Streptococcus suis; assay: Antibacterial activity against Streptococcus suis clinical isolates assessed as bacterial growth inhibition measured after 16 to 24 hrs by broth microdilution assay; conditions: time 16-24 hrs
[21] = test system: Streptococcus pneumoniae; assay: Antibacterial activity against Streptococcus pneumoniae assessed as bacterial growth inhibition measured after 16 to 24 hrs by broth microdilution assay; conditions: time 16-24 hrs
[22] = test system: Enterococcus faecalis; assay: Antibacterial activity against Enterococcus faecalis clinical isolates assessed as bacterial growth inhibition measured after 16 to 24 hrs by broth microdilution assay; conditions: time 16-24 hrs
[23] = test system: Staphylococcus epidermidis; assay: Antibacterial activity against Staphylococcus epidermidis clinical isolates assessed as bacterial growth inhibition measured after 16 to 24 hrs by broth microdilution assay; conditions: time 16-24 hrs
[24] = test system: Enterococcus faecalis; assay: Antibacterial activity against Enterococcus faecalis assessed as bacterial growth inhibition measured after 16 to 24 hrs by broth microdilution assay; conditions: time 16-24 hrs
[25] = test system: Staphylococcus haemolyticus; assay: Antibacterial activity against Staphylococcus haemolyticus clinical isolates assessed as bacterial growth inhibition measured after 16 to 24 hrs by broth microdilution assay; conditions: time 16-24 hrs
[26] = test system: Haemophilus parasuis; assay: Antibacterial activity against Haemophilus parasuis clinical isolates assessed as bacterial growth inhibition measured after 16 to 24 hrs by broth microdilution assay; conditions: Glaesserella parasuis; time 16-24 hrs
[27] = test system: Staphylococcus aureus; assay: Antibacterial activity against Staphylococcus aureus assessed as bacterial growth inhibition measured after 16 to 24 hrs by broth microdilution assay; conditions: time 16-24 hrs
[28] = test system: Staphylococcus aureus; assay: Antibacterial activity against Staphylococcus aureus clinical isolates assessed as bacterial growth inhibition measured after 16 to 24 hrs by broth microdilution assay; conditions: time 16-24 hrs
[29] = test system: Staphylococcus aureus; assay: Antibacterial activity against Staphylococcus aureus ATCC 6538p assessed as bacterial growth inhibition by agar dilution assay
[30] = test system: Escherichia coli; assay: Antibacterial activity against Escherichia coli ATCC 25922 assessed as bacterial growth inhibition by agar dilution assay
[31] = test system: Mycolicibacterium smegmatis; assay: Antibacterial activity against Mycobacterium smegmatis assessed as bacterial growth inhibition by serial dilution method
[32] = test system: Staphylococcus aureus; assay: Antibacterial activity against Staphylococcus aureus assessed as bacterial growth inhibition by serial dilution method
[33] = test system: Pseudomonas aeruginosa; assay: Antibacterial activity against Pseudomonas aeruginosa assessed as bacterial growth inhibition by serial dilution method
[34] = test system: Staphylococcus aureus; assay: Antibacterial activity against methicillin resistant Staphylococcus aureus assessed as bacterial growth inhibition by microdilution assay
[35] = test system: Proteus mirabilis; assay: Antibacterial activity against efflux deficient Proteus mirabilis DSM-4479 assessed as bacterial growth inhibition by agar diffusion assay
[36] = test system: Escherichia coli; assay: Antibacterial activity against efflux deficient Escherichia coli TolC assessed as bacterial growth inhibition by agar diffusion assay
[37] = test system: Pseudomonas aeruginosa; assay: Antibacterial activity against efflux deficient Pseudomonas aeruginosa PA14 assessed as bacterial growth inhibition by agar diffusion assay
[38] = test system: Escherichia coli; assay: Antibacterial activity against Escherichia coli DSM-1116 assessed as bacterial growth inhibition by agar diffusion assay
[39] = test system: Staphylococcus aureus; assay: Antibacterial activity against Staphylococcus aureus Newman assessed as bacterial growth inhibition by agar diffusion assay
[40] = test system: Pseudomonas aeruginosa; assay: Antibacterial activity against efflux deficient Pseudomonas aeruginosa DSM-30104 assessed as bacterial growth inhibition by agar diffusion assay
[41] = test system: Staphylococcus aureus; assay: Antibacterial activity against Staphylococcus aureus assessed as bacterial growth inhibition by broth microdilution assay
[42] = test system: Mycobacterium tuberculosis; assay: Potency index, ratio of isoniazid MIC to test compound MIC for antimycobacterial activity against Mycobacterium tuberculosis H37Rv assessed as bacterial growth inhibition by broth microdilution assay
[43] = test system: Mycobacterium tuberculosis; assay: Antimycobacterial activity against Mycobacterium tuberculosis H37Rv assessed as bacterial growth inhibition by broth microdilution assay
[44] = test system: Mycobacterium tuberculosis; assay: Potency index, ratio of rifampicin MIC to test compound MIC for antimycobacterial activity against Mycobacterium tuberculosis H37Rv assessed as bacterial growth inhibition by broth microdilution assay
[45] = test system: Staphylococcus aureus; assay: Potency index, ratio of ciprofloxacin MIC to test compound MIC for antimicrobial activity against Staphylococcus aureus assessed as bacterial growth inhibition by agar cup diffusion assay

COc1ccc(-c2cc(-c3c(O)c4ccccc4[nH]c3=O)nc(N)c2C#N)cc1
Ratio [1]: 2 | MIC [2]: 2.34 µg/mL (≈ 6.09 µM) | MIC [3]: 2.34 µg/mL (≈ 6.09 µM) | Ratio [4]: 2 | Ratio [5]: 2 | MIC [6]: 2.34 µg/mL (≈ 6.09 µM) | MIC [7]: 2.34 µg/mL (≈ 6.09 µM)

CCn1cc(-c2nnc(S(=O)(=O)Cc3ccc(OC)cc3)o2)c(=O)c2cc(F)c(N3CCN(C)CC3)cc21
zone of inhibition at 50000 µg/mL [8]: 26 mm | zone of inhibition at 50000 µg/mL [9]: 26 mm | zone of inhibition at 50000 µg/mL [10]: 26 mm | MIC [11]: 16.2 µg/mL (≈ 29.9 µM) | zone of inhibition at 50000 µg/mL [12]: 26 mm | zone of inhibition at 50000 µg/mL [13]: 26 mm

C[C@H]1CCc2c(N3CCC(O)(COc4ccc(N5C[C@H](CO)OC5=O)cc4F)CC3)c(F)cc3c(=O)c(C(=O)O)cn1c23
MIC [14]: 0.016 µg/mL (≈ 0.0267 µM) | MIC [15]: ≤ 0.063 µg/mL | MIC [16]: 0.016 µg/mL (≈ 0.0267 µM) | MIC [17]: 0.016 µg/mL (≈ 0.0267 µM) | MIC [18]: 0.016 µg/mL (≈ 0.0267 µM) | MIC [19]: ≤ 0.063 µg/mL | MIC [20]: ≤ 0.063 µg/mL | MIC [21]: 0.016 µg/mL (≈ 0.0267 µM) | MIC [22]: ≤ 0.063 µg/mL | MIC [23]: ≤ 0.063 µg/mL | MIC [24]: 0.016 µg/mL (≈ 0.0267 µM) | MIC [25]: ≤ 0.063 µg/mL | MIC [26]: ≤ 0.063 µg/mL | MIC [27]: 0.016 µg/mL (≈ 0.0267 µM) | MIC [28]: ≤ 0.063 µg/mL

Cc1cc(N2CCN(c3cc4c(cc3F)c(=O)c(C(=O)O)cn4C3CC3)CC2)nc(Cl)n1
MIC [29]: 7.4 µg/mL (≈ 16.2 µM) | MIC [30]: 10.5 µg/mL (≈ 22.9 µM)

COC(=O)c1ccc(NC(=O)COC(=O)c2ccncc2)cc1OCCC(=O)NC1CCN(c2c(F)cc3c(=O)c(C(=O)O)cn(C4CC4)c3c2Cl)C1 (stereo not given)
MIC [31]: 0.125 µg/mL (≈ 0.167 µM) | MIC [32]: 0.125 µg/mL (≈ 0.167 µM) | MIC [33]: 0.125 µg/mL (≈ 0.167 µM)

COP(=O)(OC)C(c1cc(C(C)(C)C)c(O)c(C(C)(C)C)c1)N1CCN(c2cc3c(cc2F)c(=O)c(C(=O)O)cn3C2CC2)CC1 (stereo not given)
MIC [34]: 0.5 µg/mL

N#Cc1c(-c2ccccc2)nc(SCC(=O)N2CCN(c3cc4c(cc3F)c(=O)c(C(=O)O)cn4C3CC3)CC2)[nH]c1=O
MIC [35]: ≤ 0.03 µg/mL | MIC [36]: ≤ 0.03 µg/mL | MIC [37]: ≤ 0.03 µg/mL | MIC [38]: ≤ 0.03 µg/mL | MIC [39]: ≤ 0.03 µg/mL | MIC [40]: ≤ 0.03 µg/mL

O=C(CSc1nnc(N2CCN(c3cc4c(cc3F)c(=O)c(C(=O)O)cn4C3CC3)CC2)s1)c1ccc([N+](=O)[O-])cc1
MIC [41]: 1 µg/mL (≈ 1.64 µM) | Ratio [42]: 3 | MIC [43]: 0.5 µg/mL (≈ 0.819 µM) | Ratio [44]: 2 | Ratio [45]: 2
